Converted amounts (≈) assume the structure as drawn.
Key:
[1] = system: Mtb IZAK (multidrug-resistant clinical isolate); assay: microbe, parasite or virus in culture; type: cell-based, Mycobacterium tuberculosis; conditions: for MIC: Mycobacterium tuberculosis, read-out: Mtb IZAK MIC; for Mtb IZAK susceptibility class (R/S): MDR clinical isolate
[2] = system: Mtb MATI (multidrug-resistant clinical isolate); assay: microbe, parasite or virus in culture; type: cell-based, Mycobacterium tuberculosis; conditions: for MIC: Mycobacterium tuberculosis, read-out: Mtb MATI MIC; for Mtb MATI susceptibility class (R/S): MDR clinical isolate
[3] = system: Mtb laboratory ID IZAK; conditions: MDR clinical isolate; external resistance profiling; cited from earlier work
[4] = system: Mtb laboratory ID MATI; conditions: MDR clinical isolate; external resistance profiling; cited from earlier work

Row | Structure (SMILES) | MIC [1] | MIC [2] | Mtb IZAK MIC, value from external resistance profiling (*) [3] | Mtb IZAK susceptibility class (R/S) [1] | Mtb MATI MIC, value from external resistance profiling (*) [4] | Mtb MATI susceptibility class (R/S) [2]
1 | Cc1ccc(C(=O)Nc2nccnc2C(N)=O)cc1 [Compound 4] | 12.5 µg/mL (≈ 48.8 µM) | 12.5 µg/mL (≈ 48.8 µM) |  |  |  | 
2 | NC(=O)c1nccnc1NC(=O)c1ccc(F)cc1 [Compound 12] | 100 µg/mL (≈ 384 µM) | 100 µg/mL (≈ 384 µM) |  |  |  | 
3 | NC(=O)c1nccnc1NC(=O)c1ccc(Cl)cc1 [Compound 15] | 12.5 µg/mL (≈ 45.2 µM) | 12.5 µg/mL (≈ 45.2 µM) |  |  |  | 
4 | NC(=O)c1nccnc1NC(=O)c1ccc(Br)cc1 [Compound 18] | 12.5 µg/mL (≈ 38.9 µM) | 12.5 µg/mL (≈ 38.9 µM) |  |  |  | 
5 | CC[C@@H](CO)NCCN[C@@H](CC)CO [EMB, ethambutol] | 0.39 µg/mL (≈ 1.91 µM) | 0.39 µg/mL (≈ 1.91 µM) | 0.5 µg/mL | S | 0.5 µg/mL | S
6 | NNC(=O)c1ccncc1 [INH, isoniazid] | 4 µg/mL (≈ 29.2 µM) | > 8 µg/mL |  | R |  | R
7 | NC(=O)c1cnccn1 [PZA, pyrazinamide] |  |  | > 16 µg/mL | R | > 128 µg/mL | R
8 | CO[C@H]1/C=C/O[C@@]2(C)Oc3c(C)c(O)c4c(O)c(c(/C=N/N5CCN(C)CC5)c(O)c4c3C2=O)NC(=O)/C(C)=C\C=C\[C@H](C)[C@H](O)[C@@H](C)[C@@H](O)[C@@H](C)[C@H](OC(C)=O)[C@@H]1C [RIF, rifampicin] |  |  | > 8 µg/mL | R | > 8 µg/mL | R
9 | [H]/N=C(/N)N[C@H]1[C@H](O)[C@@H](O)[C@H](O[C@@H]2O[C@@H](C)[C@](O)(C=O)[C@H]2O[C@@H]2O[C@@H](CO)[C@H](O)[C@@H](O)[C@@H]2NC)[C@@H](N/C(N)=N\[H])[C@@H]1O [STM, streptomycin] |  |  | 4 µg/mL | R | > 16 µg/mL | R
